US9834535B2, “Sulfamate derivative compounds for use in treating or alleviating pain” (Bio-Pharm Solutions Co., Ltd., priority 2013, dated 2017)

What was measured:
[1] = system: CFA-induced pain model; assay: Antiallodynic activity on Complete Freund's Adjuvant (CFA)-induced inflammatory pain model (von Frey); assay type: in vivo, Sprague-Dawley rats; conditions: Rattus norvegicus, ip, 0.5 h, 0.5 h, rat, intraperitoneal, read-out: CFA model: effect (%) at the concentration administered
Method: Male, Sprague-Dawley rats (200-220 g, Nara Bio, Korea) were habituated for 1 week before surgery and allowed free access to food and water throughout the experimentation. Room temperature and humidity were maintained at 24±2° C. and 50±10%, respectively.
CFA-induced inflammatory pain was induced by the procedure of Nagakura et al. (2003) and Gregory P. et al. (2010) with minor modifications. CFA (sigma, USA) was injected in the left plantar with a 100 ul volume under gaseous anesthesia with isoflurane a 4:4 flow ratio of NO2 Sham controls were injected with 100 ul of saline and vehicle controls were identical to CFA infusion model, except for administration of vehicles.
(§1) Tactile sensitivity (Mechanical allodynia) was evaluated using von Frey monofilaments before and after treatment, and animals were used withdrawal threshold value was less than 4 g. One week after surgery, CFA-infused animals (n=4˜6), sham-operated animals (n=12), and vehicle-operated animals (n=17) were tested for tactile sensitivity with von Frey monofilaments 3 trials in each animal. All Animals were placed in a stainless steel mashed chamber and habituated for 30 min in the test box. The tactile sensitivity for ipsilateral hind paw was measured using the up-and-down method (Dixon, 1980) with seven von Frey monofilaments (0.4, 1, 2, 4, 6, 8, and 15 g) to 3 trials. Tactile sensitivity test was followed by Dixon's method (Dixon, 1980). The 50% paw withdrawal threshold for each paw was calculated using the following formula: [Xth] log=[vFr] log+ky where [vFr] is the force of the last von Frey used, k=0.2249 which is the average interval (in log units) between the von Frey monofilaments, and y is a value that depends upon the pattern of withdrawal responses (Dixon, 1980).
[…] The test was performed peak time of efficacy (0.5 hr) after compound administration.
The relative values compared to the sham (% control) were calculated and shown in Table 4, which show an antiallodynic effect of the compound of Examples on CFA-induced pain model in rats.

[2] = system: SNL model; assay: Antiallodynic activity on Chung model (SNL, spinal nerve ligation; von Frey); assay type: in vivo, Sprague-Dawley rats; conditions: 0.5 h, rat, oral, read-out: SNL model: effect (%) at the concentration administered
Method: Male. Sprague-Dawley rats (200-220 g, Orient Bio, Korea) were habituated for 1 week before the experiment and allowed free access to food and water throughout the experimentation. Room temperature and humidity were maintained at 24±2° C. and 50±10%, respectively. Neuropathic surgery (SNL, Spinal nerve ligation) model was clone as described in Kim and Chung (1992). Briefly, animal under gaseous anesthesia with isoflurane a 4:4 flow ratio of NO2. The left lumber spinal nerve L5 and L6 were isolated and tightly ligated with 4-0 silk thread. The wound was treated with a gentamicin antibiotics solution (4 mg/kg, 4 ul/g, bw), and the wound muscle was closed with cat cut chrom 4/0 thread and skin was closed dafilon 4/0 tread. Sham controls were prepared in the same manner as the spinal nerves were exposed, but no ligated L5 and L6 nerves. But, vehicle controls were identical to SNL model, except for administration of vehicles.
as §1, with “treatment” for “treatment,”, “SNL-operated” for “CFA-infused”, “(n=4˜10)” for “(n=12),”, “(n=4˜13)” for “(n=17)”
All animals were fasted 18 h before the administration of the compounds. The antiallodynic effect of the compounds were evaluated at the various dose (n=5˜6), orally administrated in a volume of 5 ul/g, bw in a vehicle of 30% (v/v) PEG 400 or 20% (v/v) Tween 80 or Saline. […]
The relative values compared to the sham group (% control) were calculated and shown in Table 5, which show an antiallodynic effect of the test compounds on SNL model in rats.

With `Nc1ccccc1[C@@H]1OC2(CCCC2)O[C@H]1COS(N)(=O)=O` [Example 72, ((2S,3S)-3-(2-aminophenyl)-1,4-dioxaspiro[4,4]nonan-2-yl)methyl sulfamate] the response vs control in vivo at 40 mg/kg [1] was 22.6% and the response vs control in vivo at 50 mg/kg [2] was 35.1%.
`NS(=O)(=O)OCC[C@H]1OC2(CCCC2)O[C@@H]1Cc1ccccc1` [Example 118, 2-((2R,3R)-3-benzyl-1,4-dioxaspiro[4,4]nonan-2-yl)ethyl sulfamate] was tested, and the response vs control in vivo at 40 mg/kg [1] was 25% and the response vs control in vivo at 90 mg/kg [2] was 38.3%.
In the case of `Cc1ccccc1[C@@H]1OC(C)(C)O[C@H]1COS(N)(=O)=O` [Example 92, ((4S,5S)-5-(2-methylphenyl)-2,2-dimethyl-1,3-dioxolan-4-yl)methyl sulfamate], the response vs control in vivo at 18 mg/kg [1] is reported as 22.3% and the response vs control in vivo at 50 mg/kg [2] is reported as 37.3%.
`Nc1ccccc1[C@@H]1OC(c2ccccc2)O[C@H]1COS(N)(=O)=O` (stereo partly drawn) [Example 76, ((4S,5S)-5-(2-aminophenyl)-2-phenyl-1,3-dioxolan-4-yl)methyl sulfamate] gave a response vs control in vivo at 40 mg/kg [1] of 25.7% and a response vs control in vivo at 90 mg/kg [2] of 22.9%.
`CC1(C)O[C@H](COS(N)(=O)=O)[C@@H](Cc2ccccc2)O1` [Example 122, ((4R,5R)-5-benzyl-2,2-dimethyl-1,3-dioxolan-4-yl)methyl sulfamate] showed a response vs control in vivo at 18 mg/kg [1] of 22.3% and a response vs control in vivo at 50 mg/kg [2] of 64.1%.
Compound `CC1(C)O[C@H](CCOS(N)(=O)=O)[C@@H](Cc2ccccc2Cl)O1` [Example 138, 2-((4R,5R)-5-(2-chlorobenzyl)-2,2-dimethyl-1,3-dioxolan-4-yl)ethyl sulfamate] has a response vs control in vivo at 40 mg/kg [1] of 32.7% and a response vs control in vivo at 90 mg/kg [2] of 71.4%.
`NS(=O)(=O)OCC[C@@H]1OC2(CCCC2)O[C@H]1c1ccccc1Cl` [Example 158, 2-((2S,3S)-3-(2-chlorophenyl)-1.4-dioxaspiro[4,4]nonan-2-yl)ethyl sulfamate] was tested, and the response vs control in vivo at 40 mg/kg [1] was 29.8%.
With `CC1(C)O[C@H](c2cnc(Cl)s2)[C@@H](COS(N)(=O)=O)O1` (stereo in doubt) [Example 166, ((4R,5S)-5-(2-chlorothiazol-5-yl)-2,2-dimethyl-1,3-dioxolan-4-yl)methyl sulfamate] the response vs control in vivo at 60 mg/kg [1] was 30.4%.
For `NS(=O)(=O)OC[C@H]1OC2(CCCCC2)O[C@@H]1Cc1ccccc1Cl` [Example 152, ((2R,3R)-3-(2-chlorobenzyl)-1,4-dioxaspiro[4,5]decan-2-yl)methyl sulfamate], the response vs control in vivo at 40 mg/kg [1] was 34.9%.
`CC1(C)O[C@@H](COS(N)(=O)=O)[C@H](c2sc(Cl)nc2Cl)O1` [Example 164, ((4S,5R)-5-(2,4 dichlorothiazol-5-yl)-2,2-dimethyl-1,3-dioxolan-4-yl)methyl sulfamate] gave a response vs control in vivo at 60 mg/kg [1] of 66.8%.
For `CC1(C)O[C@@H](COS(N)(=O)=O)[C@H](c2ccc(Cl)s2)O1` [Example 172, ((4S,5R)-2,2-dimethyl-5-(5-chlorothiophen-2-yl)-1,3-dioxolan-4-yl)methyl sulfamate], the response vs control in vivo at 60 mg/kg [1] was 35.9%.
`NS(=O)(=O)OC[C@@H]1OC2(CCCCC2)O[C@H]1c1ccccc1` [Example 112, ((2S,3S)-3-phenyl-1,4-dioxaspiro[4,5]decan-2-yl)methyl sulfamate] showed a response vs control in vivo at 40 mg/kg [1] of 41.1%.
For `CCC1(CC)O[C@@H](COS(N)(=O)=O)[C@H](c2ccccc2)O1` [Example 108, ((4S,5S)-5-phenyl-2,2-diethyl-1,3-dioxolan-4-yl)methyl sulfamate], the response vs control in vivo at 40 mg/kg [1] was 37.5%.
`CC1(C)O[C@H](COS(N)(=O)=O)[C@@H](Cc2ccccc2Cl)O1` [Example 146, ((4R,5R)-5-(2-chlorobenzyl)-2,2-dimethyl-1,3-dioxolan-4-yl)methyl sulfamate] was tested, and the response vs control in vivo at 40 mg/kg [1] was 16.5% and the response vs control in vivo at 90 mg/kg [2] was 45.8%.
In the case of `NS(=O)(=O)OC[C@@H]1OC2(CCCC2)O[C@H]1c1ccccc1Cl` [Example 10, ((2S,3S)-3-(2-chlorophenyl)-1,4-dioxaspiro[4,4]nonan-2-yl)methyl sulfamate], the response vs control in vivo at 60 mg/kg [1] is reported as 20.7%.
For `CC1(C)O[C@@H](COS(N)(=O)=O)[C@H](c2c(Cl)cccc2Cl)O1` [Example 52, ((4S,5S)-5-(2,6-dichlorophenyl)-2,2-dimethyl-1,3-dioxolan-4-yl)methyl sulfamate], the response vs control in vivo at 60 mg/kg [1] was 33.3%.
Compound `CC1(C)O[C@@H](COS(N)(=O)=O)[C@H](c2ccc(Cl)cc2Cl)O1` [Example 40, ((4S,5S)-5-(2,4-dichlorophenyl)-2,2-dimethyl-1,3-dioxolan-4-yl)methyl sulfamate] has a response vs control in vivo at 60 mg/kg [1] of 22.5%.
In the case of `CC1(C)O[C@H](c2sc(Cl)nc2Cl)[C@@H](COS(N)(=O)=O)O1` [Example 163, ((4R,5S)-5-(2,4-dichlorothiazol-5-yl)-2,2-dimethyl-1,3-dioxolan-4-yl)methyl sulfamate], the response vs control in vivo at 40 mg/kg [1] is reported as 23.1%.
Compound `Cc1nc(Cl)sc1[C@@H]1OC(C)(C)O[C@H]1COS(N)(=O)=O` [Example 170, ((4S,5R)-2,2-dimethyl-5-(2-chloro-4-methylthiazol-5-yl)-1,3-dioxolan-4-yl)methyl sulfamate] has a response vs control in vivo at 60 mg/kg [1] of 24.2%.
`CC1(C)OC(COS(N)(=O)=O)C(c2cncnc2)O1` (centres unmarked) [Example 175, 2,2-dimethyl-5-(pyrimidin-5-yl)-1,3-dioxolan-4-yl)methyl sulfamate] gave a response vs control in vivo at 60 mg/kg [1] of 44.4%.
`NS(=O)(=O)OCC[C@H]1OC2(CCCCC2)O[C@@H]1Cc1ccccc1` [Example 120, 2-((2R,3R)-3-benzyl-1,4-dioxaspiro[4,5]decan-2-yl)ethyl sulfamate] showed a response vs control in vivo at 40 mg/kg [1] of 23%.
Work on `CCC1(CC)O[C@@H](COS(N)(=O)=O)[C@H](c2ccccc2N)O1` [Example 70, ((4S,5S)-5-(2-aminophenyl)-2,2-diethyl-1,3-dioxolan-4-yl)methyl sulfamate] yielded a response vs control in vivo at 40 mg/kg [1] of 18.8%.
`CC1(C)O[C@@H](COS(N)(=O)=O)[C@H](c2ccccc2)O1` [Example 106, ((4S,5S)-5-phenyl-2,2-dimethyl-1,3-dioxolan-4-yl)methyl sulfamate] showed a response vs control in vivo at 18 mg/kg [1] of 23.2% and a response vs control in vivo at 50 mg/kg [2] of 25.4%.
`CC1(C)O[C@H](CCOS(N)(=O)=O)[C@@H](Cc2ccccc2)O1` [Example 114, 2-((4R,5R)-5-benzyl-2,2-dimethyl-1,3-dioxolan-4-yl)ethyl sulfamate] gave a response vs control in vivo at 40 mg/kg [1] of 29.8%.
With `NS(=O)(=O)OCC[C@@H]1OC2(CCCC2)O[C@H]1c1ccccc1` [Example 134, 2-((2S,3S)-3-phenyl-1,4-dioxaspiro[4,4]nonan-2-yl)ethyl sulfamate] the response vs control in vivo at 18 mg/kg [1] was 71.1%.
In the case of `NS(=O)(=O)OCC[C@@H]1OC2(CCCCC2)O[C@H]1c1ccccc1Cl` [Example 160, 2-((2S,3S)-3-(2-chlorophenyl)-1,4-dioxaspiro[4,5]decan-2-yl)ethyl sulfamate], the response vs control in vivo at 40 mg/kg [1] is reported as 38.4%.
Compound `CCC1(CC)O[C@H](COS(N)(=O)=O)[C@@H](Cc2ccccc2Cl)O1` [Example 148, ((4R,5R)-5-(2-chlorobenzyl)-2,2-diethyl-1,3-dioxolan-4-yl)methyl sulfamate] has a response vs control in vivo at 40 mg/kg [1] of 15.5%.
